From patent US5965527A, “Cyclosporin compounds, their preparation and the pharmaceutical compositions which contain them” (Rhone-Poulenc Rorer, S.A., priority 1996, dated 1999)

Tested on: retroviruses
Details: combined with AZT, ddl, Saquinavir and/or ribavirin

“[(R)-2-(N,N-Dimethylamino)ethylthio-Sar]^3 -cyclosporin A [Example 2]” was tested, and the effect in combination was “particularly advantageous effect”.
